One series concerns A549/ATCC. As to the kind of experiment: NCI 60 human tumor cell line screen (SRB): A549/ATCC. Format: cell-based. To be noted: Non-small cell lung, 48 hours, read-out: GI50 values (μM conc.). Here is the method:
(§1) The in vitro anticancer activity studies for these chalcone analogues were carried out at the National Cancer Institute, USA.
(§2) The chalcone compounds have been tested at NCI, USA, against sixty human tumor cell lines derived from nine cancer types (leukemia, non-small cell lung cancer, colon cancer, CNS cancer, melanoma cancer, ovarian cancer, renal cancer, prostate cancer and breast cancer). For these compounds results are expressed as growth inhibition (GI50) values as per NCI protocol.
(§3) We describe here the development and implementation of a pilot-scale, in vitro, anticancer drug screen utilizing a panel of 60 human tumor cell lines organized into subpanels representing leukemia, melanoma, and cancers of the lung, colon, kidney, ovary, and central nervous system. The ultimate goal of this disease-oriented screen is to facilitate the discovery of new compounds with potential cell line-specific and/or subpanel-specific antitumor activity. In the current screening protocol, each cell line is inoculated onto microtiter plates, then preincubated for 28 hours. Subsequently, test agents are added in five 10-fold dilutions and the culture is incubated for an additional 48 hours. For each test agent, a dose-response profile is generated. End-point determinations of the cell viability or cell growth are performed by in situ fixation of cells, followed by staining with a protein-binding dye, sulforhodamine B (SRB). The SRB binds to the basic amino acids of cellular macromolecules; the solubilized stain is measured spectrophotometrically to determine relative cell growth or viability in treated and untreated cells.

A further series deals with K-562. Description: NCI 60 human tumor cell line screen (SRB): K-562. In kind it is cell-based. The settings on record: K562, K-562, Leukemia, 48 hours, read-out: GI50 values (μM conc.). The procedure: as §1, §2
as §3, with “For each test agent, a dose-response profile is generated. End-point determinations of the cell viability or cell growth are performed by in situ fixation of cells, followed by staining with a protein-binding dye, sulforhodamine B (SRB).” left out

As a reminder, the GI50 is the concentration at which growth is held to half of that of the control. One may read the melting point as the temperature, or range, at which the solid turns liquid. As for `COc1cc(C(=O)/C=C/c2cccnc2Nc2ccccc2)cc(OC)c1OC` [6a, (E)-3-(2-(Phenylamino)pyridin-3-yl)-1-(3,4,5-trimethoxyphenyl)prop-2-en-1-one], the melting point was in the range of 125 to 128 °C. Also, the GI50 in the series on A549/ATCC came out at 1.3 µM.

For `COc1cc(C(=O)/C=C/c2cccnc2Nc2ccc(Cl)cc2)cc(OC)c1OC` [6ax, (E)-3-(2-(4-Chlorophenylamino)pyridin-3-yl)-1-(3,4,5-trimethoxyphenyl)prop-2-en-1-one], the concentration for 50% growth inhibition (GI50) in the series with A549/ATCC was determined as 1.63 µM.

Take `COc1ccc(Nc2ncccc2/C=C/C(=O)c2cc(OC)c(OC)c(OC)c2)cc1` [6h, (E)-3-(2-(4-Methoxyphenylamino)pyridin-3-yl)-1-(3,4,5-trimethoxyphenyl)prop-2-en-1-one]: the GI50 in the series with K-562 was found to be 0.78 µM.

`COc1cc(Nc2ncccc2/C=C/C(=O)c2cc(OC)c(OC)c(OC)c2)cc(OC)c1OC` [6v, (E)-1-(3,4,5-Trimethoxyphenyl)-3-(2-(3,4,5-trimethoxyphenylamino)pyridin-3-yl)prop-2-en-1-one]: the GI50 in the series on A549/ATCC worked out at 4.21 µM.

Consider `COc1ccc(C(=O)/C=C/c2cccnc2Nc2cc(OC)c(OC)c(OC)c2)cc1` [6z, (E)-1-(4-Methoxyphenyl)-3-(2-(3,4,5-trimethoxyphenylamino)pyridin-3-yl)prop-2-en-1-one], for which the GI50 in the series on A549/ATCC turned out to be 2.15 µM.

With `COc1cc(/C=C/C(=O)c2cccnc2Nc2ccc(F)cc2)cc(OC)c1OC` [7f, (E)-1-(2-(4-Fluorophenylamino)pyridin-3-yl)-3-(3,4,5-trimethoxyphenyl)prop-2-en-1-one], the 50% growth inhibitory concentration (GI50) with A549/ATCC was 2.66 µM.

Source of the values: patent US9006451B1, “2-anilinonicotinyl based chalcones useful as potential anticancer agents and process for preparation thereof” (Council of Scientific and Industrial Research, priority 2013, dated 2015).
